Measurements: BindingDB's records for doi:10.1124/mol.58.6.1310 (Pfizer, 2000)

biological target: Glutamate receptor 3 (Rattus norvegicus, UniProt P19492)
Sequence (P19492 whole entry): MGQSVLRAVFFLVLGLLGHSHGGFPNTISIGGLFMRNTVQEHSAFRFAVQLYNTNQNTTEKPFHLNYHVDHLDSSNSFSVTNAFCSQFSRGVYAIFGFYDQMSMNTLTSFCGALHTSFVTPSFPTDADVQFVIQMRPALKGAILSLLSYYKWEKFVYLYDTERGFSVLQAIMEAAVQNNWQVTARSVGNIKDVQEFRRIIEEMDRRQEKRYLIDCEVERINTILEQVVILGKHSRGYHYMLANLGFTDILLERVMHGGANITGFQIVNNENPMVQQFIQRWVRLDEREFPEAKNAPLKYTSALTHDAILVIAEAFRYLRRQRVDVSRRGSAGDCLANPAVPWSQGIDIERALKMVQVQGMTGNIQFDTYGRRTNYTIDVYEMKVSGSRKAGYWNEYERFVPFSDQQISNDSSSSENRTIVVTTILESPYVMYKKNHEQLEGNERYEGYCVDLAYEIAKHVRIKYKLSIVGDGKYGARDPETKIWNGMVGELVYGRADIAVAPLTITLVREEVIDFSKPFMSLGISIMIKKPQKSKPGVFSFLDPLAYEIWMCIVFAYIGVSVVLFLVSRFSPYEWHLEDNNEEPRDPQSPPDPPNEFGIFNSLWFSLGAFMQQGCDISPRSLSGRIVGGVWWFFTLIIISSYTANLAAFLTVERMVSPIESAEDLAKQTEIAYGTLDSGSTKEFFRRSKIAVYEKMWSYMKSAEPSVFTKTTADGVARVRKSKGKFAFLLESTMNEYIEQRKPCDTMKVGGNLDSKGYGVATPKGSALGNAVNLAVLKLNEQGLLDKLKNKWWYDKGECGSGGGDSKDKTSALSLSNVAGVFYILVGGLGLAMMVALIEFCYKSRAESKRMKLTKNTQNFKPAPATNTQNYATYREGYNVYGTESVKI

Row | Ki | Structure (SMILES)
1 | 25 nM | CCN(CC)Cc1cccc(/C=C/c2nc3ccc(F)cc3c(=O)n2-c2ccccc2Cl)n1 [(R)-3-(2-Chloro-phenyl)-2-[(E)-2-(6-diethylaminomethyl-pyridin-2-yl)-vinyl]-6-fluoro-3H-quinazolin-4-one]
2 | 57 nM | Cc1ncccc1-n1c(/C=C/C2CSC(C)N2)nc2ccccc2c1=O (stereo not given) [CP-471236]
3 | > 10000 nM | Cc1ncccc1-n1c(/C=C/C2CS[C@H](C)N2)nc2ccccc2c1=O (stereo not given in full) [CP-471237]

Row | Structure (SMILES) | Ki
4 | N#Cc1cccc(/C=C/c2nc3ccc(F)cc3c(=O)n2-c2ccccc2Cl)n1 | 3 nM
5 | CC1=NN=C(c2ccc(N)cc2)c2cc3c(cc2C1)OCO3 [GYKI-52466] | > 10000 nM
